The values below are quoted from earlier work in patent US20180353540A1, “Pharmaceutical composition for treating leukemia and preparation method thereof” (Yi Fan Pharmaceutical Academy (Beijing) Co., Ltd., priority 2015, published 2018).

The structures appear in SMILES notation.

Series [1] has as its system ME180 cells. As to conditions: non-toxic dose 0.5 μg/ml.
Series [2] has as its system SGC7901 human gastric adenocarcinoma cells.
For series [3], the system named is HL-6 cells. As to conditions: non-toxic dose 0.5 μg/ml.

Take `CC1=C(/C=C/C(C)=C/C=C/C(C)=C/C(=O)O)C(C)(C)CCC1` [ATRA, all-trans retinoic acid]: in series [1], the “induced differentiation effect on ME180 cells” value is “better induced differentiation effects”.

For `Cc1coc2c1C(=O)C(=O)c1c-2ccc2c1CCCC2(C)C` [tanshinone IIA], the “expression of c-myc and H-ras oncogenes (RNA dot blot hybridization)” value in series [1] (ME180 cell line) is “significantly reduced”. The “induced differentiation effect on ME180 cells” value in series [1] is given as “better induced differentiation effects”. In series [2], the “growth of SGC7901 human gastric adenocarcinoma cells in vitro” value is given as “significantly inhibits the growth”. Further, in series [3], the “effect on HL-6 cells (differentiation, maturation, apoptosis)” value was “can induce differentiation and maturation of tumor cells, accompanied by apoptosis”.
